The source made the active and inactive calls. No cut-off for these calls is given here. Non-standard residues stand in square brackets, D forms with d. Residues, ends and D or L forms follow the SMILES beside them. Dab = NCC[C@H](N)C(=O)O
What was measured:
Escherichia coli [1] = test: Antimicrobial activity against Escherichia coli ATCC 25922 assessed as inhibition of visible microbial growth incubated for 18 hrs by broth microdilution method; format: functional
Staphylococcus aureus [2] = test: Induction of morphological changes in multidrug resistant Staphylococcus aureus assessed as surface roughening at 16 microg/ml incubated for 1 hrs by SEM analysis; format: functional, organism-based; conditions: dose 16.0 µg/ml
Pseudomonas aeruginosa [3] = test: Antimicrobial activity against multidrug resistant Pseudomonas aeruginosa assessed as inhibition of visible microbial growth incubated for 18 hrs by broth microdilution method; format: functional
[4] = Stability in 25% human plasma assessed as compound remaining measured after 24 hrs by RP-HPLC analysis; format: ADME, cell-free; conditions: 25% plasma, read-out: Stability
Cell membrane [5] = test: Disruption of cell membrane in multidrug resistant Staphylococcus aureus assessed as increase in red fluorescence at 16 microg/mL incubated after 2 hrs by SYTO9/PI double staining based fluorescence confocal microscopic analysis; format: subcellular; conditions: dose 16.0 µg/ml
Pseudomonas aeruginosa [6] = test: In vivo antibacterial activity against multidrug resistant Pseudomonas aeruginosa infected in acute peritonitis C57BL/6 mouse model assessed as decrease in IL-6 level in serum at 5 to 20 mg/kg, ip measured after 12 hrs by ELISA; format: functional, organism-based; conditions: dose 5-20 mg/kg
Escherichia coli [7] = test: Antimicrobial activity against multidrug resistant Escherichia coli assessed as inhibition of visible microbial growth incubated for 18 hrs by broth microdilution method; format: functional
Pseudomonas aeruginosa [8] = test: Antimicrobial activity against multidrug resistant Pseudomonas aeruginosa at 1.9 to 500 microg/ml in presence of lipopolysaccharide by checkerboard microdilution assay; format: functional, organism-based; conditions: dose 1.9-500 µg/ml
Pseudomonas aeruginosa [9] = test: In vivo antibacterial activity against multidrug resistant Pseudomonas aeruginosa infected in acute peritonitis C57BL/6 mouse model assessed as decrease in TNF-alpha level in serum at 5 to 20 mg/kg, ip measured after 12 hrs by ELISA; format: functional, organism-based; conditions: dose 5-20 mg/kg
Pseudomonas aeruginosa [10] = test: Induction of morphological changes in multidrug resistant Pseudomonas aeruginosa assessed as surface roughening at 16 microg/ml incubated for 1 hrs by SEM analysis; format: functional, organism-based; conditions: dose 16.0 µg/ml
Cell membrane [11] = test: Induction of cytoplasmic membrane depolarization in multidrug resistant Pseudomonas aeruginosa assessed as increase in fluorescence intensity measured for 12 min by DISC3-5 dye based fluorescence analysis; format: subcellular; conditions: dose 4-32 µg/ml
Pseudomonas aeruginosa [12] = test: Antimicrobial activity against multidrug resistant Pseudomonas aeruginosa assessed as inhibition of bacterial growth at >=125 microg/ml in presence of lipoteichoic acid by checkerboard microdilution assay; format: functional, organism-based; conditions: dose >= 125.0 µg/ml
[13] = Hemolytic activity in human red blood cell assessed as hemolysis at 128 microg/ml measured after 1 hrs by microplate reader assay relative to control; format: toxicity, cell-based, Erythrocyte; conditions: red blood cells, at 128 µg/mL, read-out: Activity
[14] = Cytotoxicity against human LO2 cells assessed as survival rate at 64 microg/ml measured after 24 hrs by CCK-8 assay relative to control; format: toxicity, cell-based, L02; conditions: at 64 µg/mL, read-out: Survival
Pseudomonas aeruginosa [15] = test: In vivo antibacterial activity against multidrug resistant Pseudomonas aeruginosa infected in acute peritonitis C57BL/6 mouse model assessed as increase in mouse survival at 5 to 20 mg/kg, ip measured after 12 hrs; format: functional, organism-based; conditions: dose 5-20 mg/kg
[16] = Hepatotoxicity in female C57BL/6 mouse assessed as change in AST level at 20 mg/kg, ip administered daily and measured for 5 days; format: toxicity, organism-based; conditions: in vivo, 120 h, time 5 day
[17] = Nephrotoxicity in female C57BL/6 mouse assessed as change in BUN level at 20 mg/kg, ip administered daily and measured for 5 days; format: toxicity, organism-based; conditions: in vivo, 120 h, time 5 day
[18] = Cytotoxicity against human BEAS-2B cells assessed as inhibition of cell growth measured after 24 hrs by CCK-8 assay; format: toxicity, cell-based
Pseudomonas aeruginosa [19] = test: Antibacterial activity against multidrug resistant Pseudomonas aeruginosa assessed as reduction in bacterial growth at 32 microg/mL measured after 1.5 hrs by bactericidal kinetic assay relative to control; format: functional; design: scale not given: the % may be the effect or the level left; conditions: dose 32 µg/ml
Pseudomonas aeruginosa [20] = test: Induction of morphological changes in multidrug resistant Pseudomonas aeruginosa assessed as presence of cellular debris at 16 microg/ml incubated for 1 hrs by SEM analysis; format: functional, organism-based; conditions: dose 16.0 µg/ml
Pseudomonas aeruginosa [21] = test: In vivo antibacterial activity against multidrug resistant Pseudomonas aeruginosa infected in acute peritonitis C57BL/6 mouse model assessed as reduction in bacterial load in kidney at 10 to 20 mg/kg, ip measured after 12 hrs; format: functional, organism-based; conditions: dose 10-20 mg/kg
Pseudomonas aeruginosa [22] = test: In vivo antibacterial activity against multidrug resistant Pseudomonas aeruginosa infected in acute peritonitis C57BL/6 mouse model assessed as reduction in tubular dilation at 5 to 20 mg/kg, ip measured after 12 hrs by H and E staining based analysis; format: functional, organism-based; conditions: dose 5-20 mg/kg
Staphylococcus aureus [23] = test: Induction of morphological changes in multidrug resistant Staphylococcus aureus assessed as presence of cellular debris at 16 microg/ml incubated for 1 hrs by SEM analysis; format: functional, organism-based; conditions: dose 16.0 µg/ml
Pseudomonas aeruginosa [24] = test: In vivo antibacterial activity against multidrug resistant Pseudomonas aeruginosa infected in acute peritonitis C57BL/6 mouse model assessed as reduction in bacterial load in lung at 10 to 20 mg/kg, ip measured after 12 hrs; format: functional, organism-based; conditions: dose 10-20 mg/kg
[25] = Hepatotoxicity in female C57BL/6 mouse assessed as change in ALT level at 20 mg/kg, ip administered daily and measured for 5 days; format: toxicity, organism-based; conditions: in vivo, 120 h, time 5 day
Cell membrane [26] = test: Induction of outer cell membrane permeabilization in multidrug resistant Pseudomonas aeruginosa assessed as increase in fluorescence intensity measured for 12 mins by NPN uptake assay; format: subcellular; conditions: dose 4-32 µg/ml
Pseudomonas aeruginosa [27] = test: Antimicrobial activity against multidrug resistant Pseudomonas aeruginosa at 1.9 to 500 microg/ml in presence of phosphatidylcholine by checkerboard microdilution assay; format: functional, organism-based; conditions: dose 1.9-500 µg/ml
Staphylococcus aureus [28] = test: Antimicrobial activity against Staphylococcus aureus ATCC 29213 assessed as inhibition of visible microbial growth incubated for 18 hrs by broth microdilution method; format: functional
Pseudomonas aeruginosa [29] = test: Induction of morphological changes in multidrug resistant Pseudomonas aeruginosa assessed as effect on cell integrity at 16 microg/ml incubated for 1 hrs by SEM analysis; format: functional, organism-based; conditions: dose 16.0 µg/ml
[30] = Toxicity in female C57BL/6 mouse assessed as effect on body weight at 20 mg/kg, ip administered daily and measured for 5 days; format: organism-based; conditions: in vivo, 120 h, time 5 day
Pseudomonas aeruginosa [31] = test: Drug resistance, ratio of MIC for multidrug resistant Pseudomonas aeruginosa after 16 passages to MIC for multidrug resistant Pseudomonas aeruginosa after first exposure; format: functional
[32] = Toxicity in female C57BL/6 mouse assessed as histopathological change in liver at 20 mg/kg, ip administered daily and measured for 5 days by H and E staining based analysis; format: organism-based; conditions: in vivo, 120 h, time 5 day
Cell membrane [33] = test: Induction of cytoplasmic membrane depolarization in multidrug resistant Pseudomonas aeruginosa assessed as increase in fluorescence intensity at MIC concentration measured within 1 min by DISC3-5 dye based fluorescence analysis; format: subcellular
Staphylococcus aureus [34] = test: Antimicrobial activity against multidrug resistant Staphylococcus aureus assessed as inhibition of visible microbial growth incubated for 18 hrs by broth microdilution method; format: functional
Pseudomonas aeruginosa [35] = test: Antibacterial activity against multidrug resistant Pseudomonas aeruginosa assessed as reduction in bacterial growth at 32 microg/mL by bactericidal kinetic assay; format: functional, organism-based; conditions: dose 32.0 µg/ml, time 0.5-4 hrs
Pseudomonas aeruginosa [36] = test: In vivo antibacterial activity against multidrug resistant Pseudomonas aeruginosa infected in acute peritonitis C57BL/6 mouse model assessed as decrease in IL-1beta level in serum at 5 to 20 mg/kg, ip measured after 12 hrs by ELISA; format: functional, organism-based; conditions: dose 5-20 mg/kg
Staphylococcus aureus [37] = test: Induction of morphological changes in multidrug resistant Staphylococcus aureus assessed as effect on cell integrity at 16 microg/ml incubated for 1 hrs by SEM analysis; format: functional, organism-based; conditions: dose 16.0 µg/ml

## CC(C)C[C@H](NC(=O)CN)C(=O)N[C@@H](CCCNC(=N)N)C(=O)N[C@@H](CCN)C(=O)N[C@@H](Cc1c[nH]c2ccccc12)C(=O)N[C@@H](CC(C)C)C(=O)N[C@@H](CCCNC(=N)N)C(=O)N[C@@H](CCN)C(=O)N[C@@H](Cc1ccccc1)C(=O)N[C@@H](CCN)C(=O)N[C@@H](CCN)C(=O)N[C@@H](Cc1ccccc1)C(=O)N[C@@H](Cc1c[nH]c2ccccc12)C(=O)O (H-GLR[Dab]WLR[Dab]F[Dab][Dab]FW-OH)
Escherichia coli [1]
  MIC: 4.8 µM
Staphylococcus aureus [2]
  Activity: Active
Pseudomonas aeruginosa [3]
  MIC: 4.8 µM
[4]
  remaining at 24 h: 40%
Cell membrane [5]
  Activity: Active
Pseudomonas aeruginosa [6]
  Activity: Active
Escherichia coli [7]
  MIC: 4.8 µM
Pseudomonas aeruginosa [8]
  Activity: inactive
Pseudomonas aeruginosa [9]
  Activity: Active
Pseudomonas aeruginosa [10]
  Activity: Active
Cell membrane [11]
  Activity: Dose-dependent-effect
Pseudomonas aeruginosa [12]
  Activity: Active; Modest Inhibition Observed
[13]
  hemolysis at 1 h, 128 µg/mL: < 10%
[14]
  viability at 24 h, 64 µg/mL: > 80%
Pseudomonas aeruginosa [15]
  Activity: Active
[16]
  Activity: Non-toxic
[17]
  Activity: Non-toxic
[18]
  CC50 at 24 h: > 64 µg/mL
Pseudomonas aeruginosa [19]
  Activity: 100%
Pseudomonas aeruginosa [20]
  Activity: Active
Pseudomonas aeruginosa [21]
  Activity: Active
Pseudomonas aeruginosa [22]
  Activity: Active
Staphylococcus aureus [23]
  Activity: Active
Pseudomonas aeruginosa [24]
  Activity: Active
[25]
  Activity: Non-toxic
Cell membrane [26]
  Activity: Active
Pseudomonas aeruginosa [27]
  Activity: Active
Staphylococcus aureus [28]
  MIC: 4.8 µM
Pseudomonas aeruginosa [29]
  Activity: Active
[30]
  Activity: Toxic
Pseudomonas aeruginosa [31]
  Ratio: <2
[32]
  Activity: Non-toxic
Cell membrane [33]
  Activity: Active; Maximal Depolarization Observed
Staphylococcus aureus [34]
  MIC: 4.8 µM
Pseudomonas aeruginosa [35]
  Activity: Time-dependent-effect
Pseudomonas aeruginosa [36]
  Activity: Active
Staphylococcus aureus [37]
  Activity: Active

— ChEMBL document CHEMBL6134827, “The discovery of novel antimicrobial peptides against drug-resistant bacteria based on fragments fusion strategy” (Eur J Med Chem, 2025)
